Data taken from patent publication US6737383B1, “Herbicidal oxadiazolidines” (priority 1999, dated 2004).

Legend:
wheat = experiment: Test B pre/postemergence wheat; format: in vivo, Triticum aestivum
Method in brief: (§1)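 Response is a visual 0-to-10 score relative to untreated plants, where 0 means no effect and 10 means complete control, taken twelve to sixteen days after application. Treatments went onto soil at planting and onto foliage of 1- to 4-leaf plants, using a surfactant-containing non-phytotoxic solvent.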

velvetleaf = experiment: Test B pre/postemergence velvetleaf; format: in vivo, Abutilon theophrasti
Method in brief: as §1

duck salad = experiment: Test B flood test duck salad; format: in vivo, Heteranthera limosa
Method in brief: (§2)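 Plants were grown to the 2-leaf stage before treatment with test chemical, then held in a greenhouse for twelve to sixteen days. Injury was visually rated against untreated controls on a 0–10 scale, where 0 is no effect and 10 is complete control.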

morningglory = experiment: Test B pre/postemergence morningglory; format: in vivo, Ipomoea hederacea
Method in brief: as §1

giant foxtail = experiment: Test B pre/postemergence giant foxtail; format: in vivo, Setaria faberii
Method in brief: as §1

bedstraw = experiment: Test B pre/postemergence bedstraw; format: in vivo, Galium aparine
Method in brief: as §1

wild oat = experiment: Test B pre/postemergence wild oat; format: in vivo, Avena fatua
Method in brief: as §1

rice = experiment: Test B flood test rice; format: in vivo, Oryza sativa
Method in brief: as §2

smallflower flatsedge = experiment: Test B flood test smallflower flatsedge; format: in vivo, Cyperus difformis
Method in brief: as §2

purple nutsedge = experiment: Test B pre/postemergence purple nutsedge; format: in vivo, Cyperus rotundus
Method in brief: as §1

pigweed = experiment: Test B pre/postemergence pigweed; format: in vivo, Amaranthus retroflexus
Method in brief: as §1

cocklebur = experiment: Test B pre/postemergence cocklebur; format: in vivo, Xanthium strumarium
Method in brief: as §1

rape = experiment: Test B pre/postemergence rape; format: in vivo, Brassica napus
Method in brief: as §1

soybean = experiment: Test B pre/postemergence soybean; format: in vivo, Glycine max
Method in brief: as §1

crabgrass = experiment: Test B pre/postemergence crabgrass; format: in vivo, Digitaria sanguinalis
Method in brief: as §1

corn = experiment: Test B pre/postemergence corn; format: in vivo, Zea mays
Method in brief: as §1

[1] = Preemergence, Rate 62 g/ha, scale of 0 to 10 where 0 is no effect and 10 is complete control
[2] = Preemergence, Rate 250 g/ha, scale of 0 to 10 where 0 is no effect and 10 is complete control
[3] = Preemergence, Rate 500 g/ha, scale of 0 to 10 where 0 is no effect and 10 is complete control
[4] = Rate 125 g/ha, Postemergence, scale of 0 to 10 where 0 is no effect and 10 is complete control
[5] = Rate 125 g/ha, Preemergence, scale of 0 to 10 where 0 is no effect and 10 is complete control
[6] = Rate 250 g/ha, Postemergence, scale of 0 to 10 where 0 is no effect and 10 is complete control
[7] = Rate 500 g/ha, Postemergence, scale 0 to 10, 0 no effect, 10 complete control
[8] = Rate 62 g/ha, headed Pre-emergence (flood test species), scale 0 to 10 (0 no effect, 10 complete control)
[9] = Rate 125 g/ha, Pre-emergence, flood test species, scale 0 to 10 where 0 is no effect and 10 is complete control
[10] = Rate 250 g/ha, Pre-emergence, flood-test species, scale 0 to 10, 0 is no effect, 10 is complete control
[11] = Rate 500 g/ha, Pre-emergence, flood test species, scale 0 to 10 (0 no effect, 10 complete control)
[12] = Rate 62 g/ha, Postemergence, scale of 0 to 10 where 0 is no effect and 10 is complete control

CC(C)N(C(=O)n1oc(=O)n(Cc2ccccn2)c1=O)c1ccc(F)cc1 [Compound 267]
0: Wheat plant response rating (wheat; [1]) | Wheat plant response rating (wheat; [2]) | Plant response rating, Wheat (wheat; [3]) | Wheat plant response rating (wheat; [4]) | Wheat plant response rating (wheat; [5]) | Velvetleaf plant response rating (velvetleaf; [1]) | Velvetleaf plant response rating (velvetleaf; [2]) | Velvetleaf plant response rating (velvetleaf; [4]) | Velvetleaf plant response rating (velvetleaf; [5]) | Ducksalad plant response rating (duck salad; [8]) | Ducksalad plant response rating (duck salad; [9]) | Ducksalad plant response rating (duck salad; [10]) | Ducksalad plant response rating (duck salad; [11]) | Morningglory plant response rating (morningglory; [1]) | Morningglory plant response rating (morningglory; [2]) | Plant response rating, Morningglory (morningglory; [3]) | Morningglory plant response rating (morningglory; [5]) | Giant foxtail plant response rating (giant foxtail; [4]) | Bedstraw plant response rating (bedstraw; [1]) | Bedstraw plant response rating (bedstraw; [2]) | Bedstraw plant response rating (bedstraw; [12]) | Bedstraw plant response rating (bedstraw; [4]) | Bedstraw plant response rating (bedstraw; [5]) | Wild oats plant response rating (wild oat; [1]) | Wild oats plant response rating (wild oat; [2]) | Wild oats plant response rating (wild oat; [4]) | Wild oats plant response rating (wild oat; [5]) | Rice plant response rating (rice; [8]) | Rice plant response rating (rice; [9]) | Rice plant response rating (rice; [10]) | Rice plant response rating (rice; [11]) | S. Flatsedge plant response rating (smallflower flatsedge; [8]) | S. Flatsedge plant response rating (smallflower flatsedge; [9]) | S. Flatsedge plant response rating (smallflower flatsedge; [10]) | S. Flatsedge plant response rating (smallflower flatsedge; [11]) | Nutsedge plant response rating (purple nutsedge; [1]) | Nutsedge plant response rating (purple nutsedge; [2]) | Plant response rating, Nutsedge (purple nutsedge; [3]) | Nutsedge plant response rating (purple nutsedge; [4]) | Nutsedge plant response rating (purple nutsedge; [5]) | Plant response rating, Nutsedge (purple nutsedge; [6]) | Redroot pigweed plant response rating (pigweed; [1]) | Redroot pigweed plant response rating (pigweed; [4]) | Plant response rating, Redroot pigweed (pigweed; [6]) | Cocklebur plant response rating (cocklebur; [1]) | Cocklebur plant response rating (cocklebur; [2]) | Plant response rating, Cocklebur (cocklebur; [3]) | Cocklebur plant response rating (cocklebur; [12]) | Cocklebur plant response rating (cocklebur; [4]) | Cocklebur plant response rating (cocklebur; [5]) | Rape plant response rating (rape; [1]) | Rape plant response rating (rape; [2]) | Plant response rating, Rape (rape; [3]) | Rape plant response rating (rape; [4]) | Rape plant response rating (rape; [5]) | Plant response rating, Rape (rape; [6]) | Soybean plant response rating (soybean; [1]) | Soybean plant response rating (soybean; [2]) | Plant response rating, Soybean (soybean; [3]) | Soybean plant response rating (soybean; [5]) | Crabgrass plant response rating (crabgrass; [4]) | Crabgrass plant response rating (crabgrass; [5]) | Corn plant response rating (corn; [1]) | Corn plant response rating (corn; [12]) | Corn plant response rating (corn; [4]) | Corn plant response rating (corn; [5]) | Plant response rating, Corn (corn; [6]) | Corn plant response rating (corn; [7])
3: Plant response rating, Wheat (wheat; [6]) | Plant response rating, Velvetleaf (velvetleaf; [3]) | Velvetleaf plant response rating (velvetleaf; [7]) | Plant response rating, Morningglory (morningglory; [6]) | Redroot pigweed plant response rating (pigweed; [5]) | Cocklebur plant response rating (cocklebur; [7]) | Plant response rating, Soybean (soybean; [6]) | Plant response rating, Crabgrass (crabgrass; [6]) | Plant response rating, Corn (corn; [3])
1: Plant response rating, Velvetleaf (velvetleaf; [6]) | Morningglory plant response rating (morningglory; [4]) | Plant response rating, Cocklebur (cocklebur; [6]) | Crabgrass plant response rating (crabgrass; [2])
6: Redroot pigweed plant response rating (pigweed; [2]) | Redroot pigweed plant response rating (pigweed; [7]) | Soybean plant response rating (soybean; [7])
2: Plant response rating, Giant foxtail (giant foxtail; [6]) | Plant response rating, Bedstraw (bedstraw; [3]) | Plant response rating, Wild oats (wild oat; [3]) | Plant response rating, Wild oats (wild oat; [6]) | Rape plant response rating (rape; [7]) | Soybean plant response rating (soybean; [4]) | Crabgrass plant response rating (crabgrass; [1]) | Corn plant response rating (corn; [2])
7: Giant foxtail plant response rating (giant foxtail; [7]) | Bedstraw plant response rating (bedstraw; [7]) | Plant response rating, Redroot pigweed (pigweed; [3]) | Crabgrass plant response rating (crabgrass; [7])
8: Morningglory plant response rating (morningglory; [7]) | Giant foxtail plant response rating (giant foxtail; [1]) | Giant foxtail plant response rating (giant foxtail; [5]) | Plant response rating, Crabgrass (crabgrass; [3])
4: Wheat plant response rating (wheat; [7]) | Plant response rating, Bedstraw (bedstraw; [6]) | Wild oats plant response rating (wild oat; [7]) | Nutsedge plant response rating (purple nutsedge; [7])
9: Giant foxtail plant response rating (giant foxtail; [2]) | Plant response rating, Giant foxtail (giant foxtail; [3])
